From patent US11066369B2, “N-(pyridin-2-yl)pyridine-sulfonamide derivatives and their use in the treatment of disease” (Novartis AG, priority 2016, dated 2021)
Structures can show the parent of a compound that is named as a salt.

Assays:
[1] = biological target: T1, horseradish peroxidase (HRP) tagged delF508-CFTR (Homo sapiens, UniProt P13569, DEL508-508); assay: Measurement of delF508-CFTR-HRP surface expression in CFBE41o- cells; format: cell-based; conditions: delF508-CFTR-HRP surface expression, CFBE41o- cells; for Emax: read-out: DelF508-CFTR-HRP Amax %; for EC50: read-out: DelF508-CFTR-HRP EC50;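 on DelF508-CFTR-HRP Amax %: percent efficacy relative to reference corrector lumacaftor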
T1 construct: expressed in transfected cells
T1 sequence (P13569 with tags, fused parts or gaps DEL508-508): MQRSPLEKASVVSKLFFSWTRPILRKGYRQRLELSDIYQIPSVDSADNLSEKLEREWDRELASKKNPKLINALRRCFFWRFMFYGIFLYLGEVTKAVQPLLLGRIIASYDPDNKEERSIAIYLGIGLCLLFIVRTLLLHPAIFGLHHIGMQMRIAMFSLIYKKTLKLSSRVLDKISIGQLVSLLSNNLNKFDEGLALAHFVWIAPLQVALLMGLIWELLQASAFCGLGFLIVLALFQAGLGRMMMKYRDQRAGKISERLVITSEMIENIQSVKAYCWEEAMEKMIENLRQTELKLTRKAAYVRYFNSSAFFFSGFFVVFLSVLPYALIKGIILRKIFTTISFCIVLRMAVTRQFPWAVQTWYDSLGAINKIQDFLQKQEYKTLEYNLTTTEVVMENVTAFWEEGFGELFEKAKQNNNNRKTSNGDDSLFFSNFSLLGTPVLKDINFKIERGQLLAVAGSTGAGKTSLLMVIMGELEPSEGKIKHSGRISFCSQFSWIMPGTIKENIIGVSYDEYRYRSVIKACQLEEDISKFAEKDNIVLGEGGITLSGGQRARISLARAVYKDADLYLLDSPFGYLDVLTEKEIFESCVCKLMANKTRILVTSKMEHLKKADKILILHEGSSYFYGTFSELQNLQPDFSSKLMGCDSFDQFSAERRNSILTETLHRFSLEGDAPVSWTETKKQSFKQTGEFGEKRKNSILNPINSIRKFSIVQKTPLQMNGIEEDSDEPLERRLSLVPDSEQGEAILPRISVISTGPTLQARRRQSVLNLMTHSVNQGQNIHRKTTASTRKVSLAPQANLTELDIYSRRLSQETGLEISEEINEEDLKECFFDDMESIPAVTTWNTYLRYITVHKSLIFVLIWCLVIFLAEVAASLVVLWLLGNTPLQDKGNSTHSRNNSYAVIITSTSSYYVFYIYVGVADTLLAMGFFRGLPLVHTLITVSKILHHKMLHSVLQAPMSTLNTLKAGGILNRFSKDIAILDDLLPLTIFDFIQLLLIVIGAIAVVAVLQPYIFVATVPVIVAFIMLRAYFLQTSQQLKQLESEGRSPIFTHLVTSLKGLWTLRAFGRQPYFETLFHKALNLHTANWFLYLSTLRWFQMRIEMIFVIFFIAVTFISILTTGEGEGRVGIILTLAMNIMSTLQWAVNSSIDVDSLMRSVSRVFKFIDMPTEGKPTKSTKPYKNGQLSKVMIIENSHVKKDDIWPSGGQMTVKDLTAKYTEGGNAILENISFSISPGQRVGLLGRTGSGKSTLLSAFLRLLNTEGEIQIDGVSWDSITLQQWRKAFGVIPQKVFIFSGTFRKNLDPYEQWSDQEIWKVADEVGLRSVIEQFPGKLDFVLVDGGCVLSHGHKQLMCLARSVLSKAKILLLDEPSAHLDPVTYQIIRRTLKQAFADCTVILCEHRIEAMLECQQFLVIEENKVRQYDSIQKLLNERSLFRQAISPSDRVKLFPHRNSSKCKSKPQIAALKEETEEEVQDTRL
Procedure, shortened: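 CFBE41o- bronchial epithelial cells stably expressing delF508-CFTR with HRP in the fourth extracellular loop; expression induced 48h with 500 ng/mL doxycycline, then compounds added (top 10 μM, 10-point 3-fold series, ≤0.5% DMSO) for 24h at 37° C. Surface HRP measured by luminescence with cell-impermeant substrate; EC50 from logistic fit of triplicates, plate-normalized to lowest concentration; efficacy also relative to a reference corrector.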

delF508-CFTR = biological target: T2, delF508-CFTR (Homo sapiens, UniProt P13569, DEL508-508); assay: Measurement of delF508-CFTR functional activity in primary human bronchial epithelial cells (HBECs) using Multi-Transepithelial Clamp Circuit (MTECC-24) assay; format: cell-based; conditions: primary CF HBECs; for MTECC24 CFHBEC- Amax %: test compound added 24h before assay plus potentiator, relative to reference combination (2 μM corrector + 0.5 μM potentiator); for EC50: test compound added 24h before assay, in the presence of potentiator, mean of at least two replicates, read-out: MTECC24 CFHBEC- EC50
T2 construct: functional activity of the CFTR channel (Chloride ion transport) in patient derived primary human bronchial epithelial cells; host or cells: patient-derived primary human bronchial epithelial cells (delF508-CFTR)
T2 sequence (P13569 with tags, fused parts or gaps DEL508-508): as above
Procedure, shortened: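 Patient-derived primary delF508-CFTR HBECs, differentiated at air-liquid interface ~2 weeks, treated basolaterally with compound for 24 h, then apical and basolateral compound in HEPES pH 7.4 assay medium. Equivalent short-circuit current (Ieq) recorded on MTECC-24 with sequential amiloride, forskolin, potentiator and INH-172; normalized to 0.1% DMSO, EC50 from curve fit.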

| SMILES | Emax [1] [%] | EC50 [1] [nM] | MTECC24 CFHBEC- Amax % (delF508-CFTR) [%] | EC50 (delF508-CFTR) [nM] |
| --- | --- | --- | --- | --- |
| Cc1c(F)cccc1-c1nc(NS(=O)(=O)c2cccc(N3CCN(C4CC4)CC3)n2)ccc1Cl [Example 141, N-(5-chloro-6-(3-fluoro-2-methylphenyl)pyridin-2-yl)-6-(4-cyclopropylpiperazin-1-yl)pyridine-2-sulfonamide] | 938 | 2020 | 88.7 | 8.6 |
| Cc1c(F)cccc1-c1nc(NS(=O)(=O)c2cccc(N3CCN(C(C)(C)C)CC3)n2)ccc1C(F)(F)F [Example 142, 6-(4-(tert-butyl)piperazin-1-yl)-N-(6-(3-fluoro-2-methylphenyl)-5-(trifluoromethyl)pyridin-2-yl)pyridine-2-sulfonamide] | 418 | 2630 | 63.7 | 5.2 |
| Cc1c(F)cccc1-c1nc(NS(=O)(=O)c2cccc(N3CCN(C4CC4)CC3)n2)ccc1C(F)(F)F [Example 144, 6-(4-cyclopropylpiperazin-1-yl)-N-(6-(3-fluoro-2-methylphenyl)-5-(trifluoromethyl)pyridin-2-yl)pyridine-2-sulfonamide] | – | 1880 | 80.5 | 2 |
| Cc1ccc(F)cc1-c1nc(NS(=O)(=O)c2cccc(N3CCN(C4CC4)CC3)n2)ccc1C(F)(F)F [Example 145, 6-(4-cyclopropylpiperazin-1-yl)-N-(6-(5-fluoro-2-methylphenyl)-5-(trifluoromethyl)pyridin-2-yl)pyridine-2-sulfonamide] | – | 1270 | 90.9 | 5 |
| CC(C)(C)OC(=O)N1CCN(c2cccc(S(=O)(=O)Nc3ccc(C(F)(F)F)c(-c4ccccc4C4CC4)n3)n2)CC1 [Example 147, tert-butyl 4-(6-(N-(6-(2-cyclopropylphenyl)-5-(trifluoromethyl)pyridin-2-yl)sulfamoyl)pyridin-2-yl)piperazine-1-carboxylate] | 482 | 375 | 92.8 | 4.2 |
| O=S(=O)(Nc1ccc(C(F)(F)F)c(-c2ccccc2C2CC2)n1)c1cccc(N2CCNCC2)n1 [Example 148, N-(6-(2-cyclopropylphenyl)-5-(trifluoromethyl)pyridin-2-yl)-6-(piperazin-1-yl)pyridine-2-sulfonamide] | 363 | 2460 | 74.1 | 85.4 |
| COc1ccc(F)cc1-c1nc(NS(=O)(=O)c2cccc(N3CCN(C(C)(C)C)CC3)n2)ccc1C(F)(F)F [Example 149, 6-(4-(tert-butyl)piperazin-1-yl)-N-(6-(5-fluoro-2-methoxyphenyl)-5-(trifluoromethyl)pyridin-2-yl)pyridine-2-sulfonamide] | 289 | 1750 | 76.0 | 22.8 |
| O=S(=O)(Nc1ccc(C(F)(F)F)c(-c2ccccc2Cl)n1)c1cccc(N2CCNCC2)n1 [Example 150, N-(6-(2-chlorophenyl)-5-(trifluoromethyl)pyridin-2-yl)-6-(piperazin-1-yl)pyridine-2-sulfonamide hydrochloride] | 180 | 3510 | 64.4 | 97.3 |
| Cc1c(F)cccc1-c1nc(NS(=O)(=O)c2cccc(N3CCNCC3)n2)ccc1C(F)(F)F [Example 151, N-(6-(3-Fluoro-2-Methylphenyl)-5-(Trifluoromethyl)Pyridin-2-yl)-6-(Piperazin-1-yl)Pyridine-2-Sulfonamide Hydrochloride] | 187 | 3690 | 75.3 | 95.6 |
| Cc1ccc(F)cc1-c1nc(NS(=O)(=O)c2cccc(N3CCNCC3)n2)ccc1C(F)(F)F [Example 152, N-(6-(5-Fluoro-2-Methylphenyl)-5-(Trifluoromethyl)Pyridin-2-yl)-6-(Piperazin-1-yl)Pyridine-2-Sulfonamide Hydrochloride] | 332 | 2680 | 62.5 | 57.8 |
| COc1ccc(Cl)c(-c2nc(NS(=O)(=O)c3cccc(N4CCNCC4)n3)ccc2C(F)(F)F)c1 [Example 154, N-(6-(2-chloro-5-methoxyphenyl)-5-(trifluoromethyl)pyridin-2-yl)-6-(piperazin-1-yl)pyridine-2-sulfonamide hydrochloride] | 395 | 3460 | 69.5 | 239 |
| COc1ccc(Cl)c(-c2nc(NS(=O)(=O)c3cccc(N4CCNCC4)n3)ccc2Cl)c1 [Example 158, N-(5-chloro-6-(2-chloro-5-methoxyphenyl)pyridin-2-yl)-6-(piperazin-1-yl)pyridine-2-sulfonamide hydrochloride] | 230 | 4190 | 76.6 | 93.5 |
| Cc1ccccc1-c1nc(NS(=O)(=O)c2cccc(N3CCN(C(=O)OC(C)(C)C)CC3)n2)ccc1C(F)(F)F [Example 160, tert-butyl 4-(6-(N-(6-(o-tolyl)-5-(trifluoromethyl)pyridin-2-yl)sulfamoyl)pyridin-2-yl)piperazine-1-carboxylate] | 476 | 743 | 88.2 | 23.3 |
| Cc1ccccc1-c1nc(NS(=O)(=O)c2cccc(N3CCNCC3)n2)ccc1C(F)(F)F [Example 161, 6-(piperazin-1-yl)-N-(6-(o-tolyl)-5-(trifluoromethyl)pyridin-2-yl)pyridine-2-sulfonamide (HCl Salt)] | 222 | 2900 | 88.2 | 91.6 |
| Cc1cccc(C)c1-c1nc(NS(=O)(=O)c2cccc(N3CCN(C(=O)OC(C)(C)C)CC3)n2)ccc1Cl [Example 162, tert-butyl 4-(6-(N-(5-chloro-6-(2,6-dimethylphenyl)pyridin-2-yl)sulfamoyl)pyridin-2-yl)piperazine-1-carboxylate] | 662 | 666 | 58.8 | 17.7 |
| Cc1cccc(C)c1-c1nc(NS(=O)(=O)c2cccc(N3CCNCC3)n2)ccc1Cl [Example 163, N-(5-chloro-6-(2,6-dimethylphenyl)pyridin-2-yl)-6-(piperazin-1-yl)pyridine-2-sulfonamide Hydrochloride] | 305 | 3140 | 64.8 | 59 |
| Cc1ccccc1-c1nc(NS(=O)(=O)c2cccc(N3CCN(C(=O)OC(C)(C)C)[C@@H](CO)C3)n2)ccc1C(F)(F)F [Example 164, tert-butyl (R)-2-(hydroxymethyl)-4-(6-(N-(6-(o-tolyl)-5-(trifluoromethyl)pyridin-2-yl)sulfamoyl)pyridin-2-yl)piperazine-1-carboxylate] | 578 | 1060 | 74.3 | 49.5 |
| Cc1ccccc1-c1nc(NS(=O)(=O)c2cccc(N3CCN[C@@H](CO)C3)n2)ccc1C(F)(F)F [Example 165, (R)-6-(3-(hydroxymethyl)piperazin-1-yl)-N-(6-(o-tolyl)-5-(trifluoromethyl)pyridin-2-yl)pyridine-2-sulfonamide hydrochloride] | 401 | 2900 | 50.8 | 342 |
| Cc1ccccc1-c1nc(NS(=O)(=O)c2cccc(N3CCN(C(=O)OC(C)(C)C)[C@H](C)C3)n2)ccc1C(F)(F)F [Example 166, tert-butyl (R)-2-methyl-4-(6-(N-(6-(o-tolyl)-5-(trifluoromethyl)pyridin-2-yl)sulfamoyl)pyridin-2-yl)piperazine-1-carboxylate] | – | 744 | 62.4 | 11.8 |
| Cc1ccccc1-c1nc(NS(=O)(=O)c2cccc(N3CCN[C@H](C)C3)n2)ccc1C(F)(F)F [Example 167, (R)-6-(3-methylpiperazin-1-yl)-N-(6-(o-tolyl)-5-(trifluoromethyl)pyridin-2-yl)pyridine-2-sulfonamide Hydrochloride] | 317 | 3710 | 67.6 | 85.5 |
| Cc1ccc(C(F)(F)F)cc1-c1nc(NS(=O)(=O)c2cccc(N3CCNCC3)n2)ccc1Cl [Example 169, N-(5-chloro-6-(2-methyl-5-(trifluoromethyl)phenyl)pyridin-2-yl)-6-(piperazin-1-yl)pyridine-2-sulfonamide Hydrochloride] | 182 | 4000 | 40.5 | 144 |
| Cc1ccccc1-c1nc(NS(=O)(=O)c2cccc(N3CCNC[C@@H]3C)n2)ccc1C(F)(F)F [Example 170, (S)-6-(2-methylpiperazin-1-yl)-N-(6-(o-tolyl)-5-(trifluoromethyl)pyridin-2-yl)pyridine-2-sulfonamide Hydrochloride] | 306 | 2200 | 63.3 | 174 |
